From US20080299188A1, “CONTROLLED RELEASE DOSAGE FORMS COMBINING IMMEDIATE RELEASE AND SUSTAINTED RELEASE OF LOW-SOLUBILITY DRUG” (Pfizer Inc., priority 2007, published 2008) come the findings set out here.

SMILES strings stand for the structures. Where a name gives a salt, the structure may show the parent alone.

Common to all, as to assay type: physicochemical
Data set [1] is described as follows: solubility in phosphate buffered saline (pH 6.5). The conditions noted are these: expressed as the free base. An excerpt: An example of a drug having a crystalline highly soluble salt form is ziprasidone. Ziprasidone hydrochloride monohydrate has a solubility of about 10 μgA/mL (expressed as the free base) in phosphate buffered saline (pH 6.5), whereas the free base form has a solubility of less than about 0.2 μgA/mL under the same conditions. Thus, crystalline ziprasidone hydrochloride is a solubility-improved form relative to the crystalline free base form of drug.

The nature of data set [2]: microcentrifuge dissolution test in MFD solution. Particulars: during the initial ninety minutes. As to the method:
Microcentrifuge dissolution tests were performed to evaluate the hydrochloride crystalline salt form of ziprasidone to verify that it was a solubility-improved form of ziprasidone. For this test, a sufficient amount of ziprasidone hydrochloride monohydrate was added to a microcentrifuge test tube so that the concentration of ziprasidone would have been 200 μgA/mL, if all of the ziprasidone had dissolved. The tests were run in duplicate. The tubes were placed in a 37° C. temperature-controlled chamber, and 1.8 mL MFD solution at pH 6.5 and 290 mOsm/kg was added to each respective tube. The samples were quickly mixed using a vortex mixer for about 60 seconds. The samples were centrifuged at 13,000 G at 37° C. for 1 minute prior to collecting a sample. The resulting supernatant solution was then sampled and diluted 1:5 (by volume) with methanol. Samples were analyzed by high-performance liquid chromatography (HPLC) at a UV absorbance of 315 nm using a Zorbax RxC8 Reliance column and a mobile phase consisting of 55% (50 mM potassium dihydrogen phosphate, pH 6.5)/45% acetonitrile. Drug concentration was calculated by comparing UV absorbance of samples to the absorbance of drug standards. The contents of each tube were mixed on the vortex mixer and allowed to stand undisturbed at 37° C. until the next sample was taken. Samples were collected at 4, 10, 20, 40, 90, and 1200 minutes following administration to the MFD solution.
A similar test was performed with the crystalline ziprasidone free base as a control, and a sufficient amount of material was added so that the concentration of compound would have been 200 μgA/mL, if all of the ziprasidone had dissolved.
The concentrations of ziprasidone obtained in these tests were used to determine the maximum dissolved concentration of ziprasidone (“MDC90”) and the area under the concentration-versus-time curve (“AUC90”) during the initial ninety minutes.

A short description of data set [3]: in vitro membrane permeation test. The method, then:
The ziprasidone coated crystals were evaluated in vitro using a membrane permeation test. An Accurel® PP 1E microporous polypropylene membrane was obtained from Membrana GmbH (Wuppertal, Germany). The membrane was washed in isopropyl alcohol and rinsed in methanol in a sonicating bath for 1 minute at ambient temperature, and then allowed to air dry at ambient temperature. The feed side of the membrane was then plasma-treated to render it hydrophilic by placing a sample of the membrane in a plasma chamber. The atmosphere of the plasma chamber was saturated with water vapor at a pressure of 550 mtorr. A plasma was then generated using radio frequency (RF) power inductively coupled into the chamber via annular electrodes at a power setting of 50 watts for 45 seconds. The contact angle of a drop of water placed on the surface of the plasma-treated membrane was about 40°. […]
To form the feed solution, a 1.39 mg sample of the coated crystals was weighed into the feed reservoir. […] Samples were then diluted in […] IPA and analyzed using HPLC. […]
The maximum flux of drug across the membrane (in units of mgA/cm^2-min) was determined by performing a least-squares fit to the data in Table 3 from 0 to 60 minutes to obtain the slope, multiplying the slope by the permeate volume (5 ml), and dividing by the membrane area (4.9 cm^2).

With `O=C1Cc2cc(CCN3CCN(c4nsc5ccccc45)CC3)c(Cl)cc2N1` [Ziprasidone Free Base, ziprasidone], the solubility result in data set [1] (listed as free base form) was “less than 0.2 μgA/mL”. In data set [2], this compound registered an AUC90 (area under the concentration-versus-time curve) of 120 min·µgA/mL and an MDC90 (maximum dissolved concentration of ziprasidone) of 2 µgA/mL.
Turning to `O=C1Cc2cc(CCN3CCN(c4nsc5ccccc45)CC3)c(Cl)cc2N1` [Ziprasidone hydrochloride monohydrate, ziprasidone hydrochloride monohydrate], the solubility entry in data set [1] (hydrochloride monohydrate) is listed as “about 10 μgA/mL”. In data set [2] (hydrochloride monohydrate), this compound had an AUC90 (area under the concentration-versus-time curve) of 1700 min·µgA/mL and an MDC90 (maximum dissolved concentration of ziprasidone) of 22 µgA/mL. Also, in data set [3] (feed MFD solution 100 μgA/ml if all dissolved, permeate 60 wt % decanol in decane, 37° C., time 0 min), the “Concentration (permeate solution)” value turned out to be 0.5 μgA/ml. Also, the Initial Flux of Ziprasidone in data set [3] (least-squares fit of Table 3 data from 0 to 60 minutes, permeate volume 5 ml, membrane area 4.9 cm^2) worked out at 0.16 µgA/cm²·min.
